Measurements from ChEMBL document CHEMBL6103597, “Opto-Epigenetic Regulation of Histone Arginine Asymmetric Dimethylation via Type I Protein Arginine Methyltransferase Inhibition” (J Med Chem, 2025).
The source made the active and inactive calls. The rule behind the calls is not given here.

Columns and labels:
[1] = Stability in PBS buffer at pH 7.4 at 37 degreeC assessed as compound remaining under dark condition measured for 72 hrs by HPLC analysis; assay type: physicochemical; conditions: read-out: Stability
A549 [2] = assay: Effect on transcriptomic profile in human A549 cells at 0.1 uM incubated for 24 hrs by RNA-sequencing analysis; assay type: functional, cell-based
A549 [3] = assay: Effect on transcriptomic profile in human A549 cells assessed as differentially expressed genes at 0.1 uM incubated for 24 hrs followed by light irradiation at 420 nm for 4 mins by RNA-sequencing analysis relative to control; assay type: functional; conditions: time 1444 min, 24.07 h
[4] = Photochemical property of compound assessed as maximum fluorescence emission wavelength at 10 uM upon visible light irradiation at 420 nm by UV-Vis absorption spectroscopy; assay type: physicochemical
A549 [5] = assay: Effect on DNA replication-related pathway in human A549 cells at 0.1 uM incubated for 24 hrs by GSEA analysis; assay type: functional, cell-based
A549 [6] = assay: Effect on DNA replication-related pathway in human A549 cells at 0.1 uM incubated for 24 hrs followed by light irradiation at 420 nm for 4 mins by GSEA analysis; assay type: functional, cell-based; conditions: time 1444.0 min
HUVEC = assay: Cytotoxicity against HUVEC cells at 50 uM incubated for 72 hrs under dark condition; assay type: toxicity, cell-based; conditions: human
A549 [7] = assay: Antiproliferative activity against human A549 cells assessed as cell viability at 10 uM incubated for 72 hrs by MTT assay relative to control; assay type: functional; conditions: read-out: Activity
A549 [8] = assay: Effect on transcriptomic profile in human A549 cells at 0.1 uM incubated for 24 hrs followed by light irradiation at 420 nm for 4 mins by RNA-sequencing analysis; assay type: functional, cell-based; conditions: time 1444.0 min
[9] = Photochemical property of compound assessed as hypsochromic shift by measuring maximum absorption peak wavelength at 10 uM upon visible light irradiation at 420 nm by UV-Vis absorption spectroscopy; assay type: physicochemical
A549 [10] = assay: Effect on cell cycle-related pathway in human A549 cells at 0.1 uM incubated for 24 hrs followed by light irradiation at 420 nm for 4 mins by GSEA analysis; assay type: functional, cell-based; conditions: time 1444.0 min
A549 [11] = assay: Antiproliferative activity against human A549 cells assessed as cell viability at 10 uM incubated for 24 hrs followed by light irradiation at 420 nm for 4 mins and measured after 48 hrs by MTT assay relative to control; assay type: functional; conditions: A549, light or radiation study, 72.07 h, time 4324 min, read-out: Activity
A549 [12] = assay: Effect on cell cycle-related pathway in human A549 cells at 0.1 uM incubated for 24 hrs by GSEA analysis; assay type: functional, cell-based
[13] = Prodrug photolysis assessed as drug degradation at 10 uM upon light irradiation at 420 nm for upto 4 mins by HPLC analysis; assay type: ADME
[14] = molecular target: Protein arginine N-methyltransferase 6 (Homo sapiens) (UniProt Q96LA8); assay: Inhibition of PRMT6 in human A549 cells assessed as decrease in H3R2me2a level at 0.1 uM incubated for 24 hrs by Western blot analysis; assay type: cell-based
Protein arginine N-methyltransferase 6 (Homo sapiens), sequence (Q96LA8 whole entry, looked up): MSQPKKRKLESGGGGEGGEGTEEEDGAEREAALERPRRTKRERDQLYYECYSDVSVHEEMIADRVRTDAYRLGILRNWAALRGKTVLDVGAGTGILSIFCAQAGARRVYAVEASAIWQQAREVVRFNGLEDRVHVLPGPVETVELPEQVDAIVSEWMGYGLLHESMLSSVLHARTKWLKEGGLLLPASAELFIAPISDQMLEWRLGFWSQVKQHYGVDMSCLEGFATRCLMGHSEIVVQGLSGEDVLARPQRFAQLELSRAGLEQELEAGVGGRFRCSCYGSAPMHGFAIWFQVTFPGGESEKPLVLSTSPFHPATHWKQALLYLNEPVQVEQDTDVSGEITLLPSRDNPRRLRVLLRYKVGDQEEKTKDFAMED

[15] = molecular target: Protein arginine N-methyltransferase 6 (Homo sapiens) (UniProt Q96LA8); assay: Inhibition of PRMT6 in human A549 cells assessed as decrease in H4R3me2a level at 0.1 uM incubated for 24 hrs by Western blot analysis; assay type: cell-based

Row | remaining at 72 h [1] [%] | Activity [4] [nm] | Activity [9] [nm] | Stability [13] | inhibition [14] | inhibition [15] | SMILES | Activity (A549 [2]) | Activity (A549 [3]) [%] | Activity (A549 [5]) | Activity (A549 [6]) | Activity (HUVEC) | viability at 10 µM (A549 [7]) [%] | Activity (A549 [8]) | Activity (A549 [10]) | viability at 10 µM (A549 [11]) [%] | Activity (A549 [12])
1 | > 75 | 470 | 380 | Unstable | – | – | CCN(CC)c1ccc2c(COC(=O)NCCN(C)Cc3c[nH]cc3-c3ccc(OC(C)C)cc3)cc(=O)oc2c1 | No effect | ~56 | No effect | Active; Downregulation Of Gene Sets Observed | Non-toxic | 94.6 | Active; About 5.4:1 Ratio Between Down-Regulated And Upregulated Genes Observed | Active; Downregulation Of Gene Sets Observed | 79.4 | No effect
2 | – | – | – | – | Active | Active | CC(C)Oc1ccc(-c2c[nH]cc2CN(C)CCN)cc1 | – | – | – | – | – | – | – | – | – | –
